Earlier results, collected in patent EP2166560A1, “Maldi matrices” (Max-Planck-Gesellschaft zur Förderung der Wissenschaften …, priority 2008, dated 2010).

Details: representative medium strong acid

pK: 10.15
Compound: CCCCCCCCCCCCCCCCCC(=O)O [stearic acid]
